# Earlier results, collected in PMC2833348 (Bioorganic & medicinal chemistry letters, 2010).
# Test system: cell - cell fusion (CCF)
# Settings: read-out: IC50 against cell - cell fusion (CCF)
compound,measurement,value
COc1ccc(S(=O)(=O)O)cc1/N=N/c1c(S(=O)(=O)O)cc2cc(Nc3nc(Nc4ccccc4)nc(Nc4cc(C)c(/N=N/c5cc(S(=O)(=O)O)cc6cc(S(=O)(=O)O)cc(O)c56)cc4OC)n3)ccc2c1O [ADS-J1],IC50,4.2 µM
